Where two headings read alike, the source gives them in different places. Non-standard residues stand in square brackets, D forms with d. Residues, ends and D or L forms follow the SMILES beside them. 2Pal = N[C@@H](Cc1ccccn1)C(=O)O; 3Pal = N[C@@H](Cc1cccnc1)C(=O)O; 4Pal = N[C@@H](Cc1ccncc1)C(=O)O
Tests used:
[1] = test system: kappa opioid receptor (KOR); conditions: cited from earlier work
[2] = biological target: KOR (kappa opioid receptor) (Homo sapiens, UniProt P41145); assay: Radioligand binding assay, KOR affinity; conditions: for Selectivity (KOR/MOR): ratio of KOR and MOR Ki; for Ki: read-out: KOR Ki (nM ± SEM)
Experimental: (§1) The analogs were evaluated in vivo in an analgesic assay (mouse 55° C. warm-water tail withdrawal assay) for opioid agonist and antagonist activity. Representative analogs were evaluated in a conditioned place preference (CPP) assay for their ability to prevent stress-induced relapse to cocaine-seeking behavior. Further, representative analogs were evaluated for opioid receptor affinity in radioligand binding assays (Table 2).

[3] = biological target: T1, kappa opioid receptor (KOR) (Mus musculus, UniProt P33534); conditions: p.o.; Eans et al., 2013; cited from earlier work
T1 construct: from tissue; host or cells: living mouse (in vivo; CNS)

[4] = test system: mice; conditions: p.o., CPP assay; Eans et al., 2013; cited from earlier work
[5] = biological target: MOR (mu opioid receptor) (Homo sapiens, UniProt P35372); assay: Radioligand binding assay, MOR affinity; conditions: read-out: MOR Ki (nM ± SEM)
Experimental: as §1

[6] = biological target: T1, kappa opioid receptor (KOR); assay: Mouse 55° C. warm-water tail withdrawal assay, opioid antagonist activity (antagonism of KOR agonist U50,488); format: in vivo; conditions: for duration of KOR antagonism of centrally administered U50,488: 30 mg/kg p.o.; for selectivity of opioid antagonism (KOR vs. MOR and DOR agonists): U50,488, morphine, SNC-80; for antagonism of centrally (i.c.v.) administered KOR agonist U50,488: peptide given orally
Experimental: as §1

[7] = test system: mice; assay: Conditioned place preference (CPP) assay, stress-induced relapse to cocaine-seeking behavior; format: in vivo, mouse; conditions: p.o.
Experimental: as §1

[8] = Locomotion following oral administration; format: in vivo; conditions: 10 or 30 mg/kg p.o.
From the text: (§2) FIGS. 6A-B provides the results of studies on locomotion and respiration following oral administration of JVA-3620.
(§3) FIG. 7A-B provides the results of studies on locomotion and respiration following oral administration of JVA-3628.

[9] = Respiration following oral administration; format: in vivo; conditions: 10 or 30 mg/kg p.o.
From the text: as §2, §3

[10] = test system: mice; assay: Mouse 55° C. warm-water tail withdrawal assay, antinociception (opioid agonist activity); format: in vivo
Experimental: as §1

T1 sequence (P33534 whole entry): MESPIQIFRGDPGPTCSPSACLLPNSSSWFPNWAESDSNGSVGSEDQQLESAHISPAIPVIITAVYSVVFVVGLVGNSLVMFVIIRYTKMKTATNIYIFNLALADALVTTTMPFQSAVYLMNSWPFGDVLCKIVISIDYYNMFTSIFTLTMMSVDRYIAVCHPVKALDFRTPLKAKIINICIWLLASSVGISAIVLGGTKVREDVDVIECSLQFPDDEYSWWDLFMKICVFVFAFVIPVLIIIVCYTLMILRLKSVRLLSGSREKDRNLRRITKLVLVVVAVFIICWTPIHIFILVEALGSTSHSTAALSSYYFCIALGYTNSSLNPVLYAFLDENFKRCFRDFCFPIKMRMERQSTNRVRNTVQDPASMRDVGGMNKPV
Sequence of KOR (kappa opioid receptor) (P41145 whole entry): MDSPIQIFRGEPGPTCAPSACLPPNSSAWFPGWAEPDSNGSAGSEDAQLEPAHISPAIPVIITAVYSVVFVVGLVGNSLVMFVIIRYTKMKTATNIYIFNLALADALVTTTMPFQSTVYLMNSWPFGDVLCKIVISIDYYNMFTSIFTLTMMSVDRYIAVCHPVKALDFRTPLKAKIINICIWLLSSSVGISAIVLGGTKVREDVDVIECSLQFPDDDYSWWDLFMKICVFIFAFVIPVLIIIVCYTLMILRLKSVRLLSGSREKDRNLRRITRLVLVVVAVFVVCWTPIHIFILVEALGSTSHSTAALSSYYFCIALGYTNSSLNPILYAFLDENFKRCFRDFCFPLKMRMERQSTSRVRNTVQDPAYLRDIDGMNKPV
Sequence of MOR (mu opioid receptor) (P35372 whole entry): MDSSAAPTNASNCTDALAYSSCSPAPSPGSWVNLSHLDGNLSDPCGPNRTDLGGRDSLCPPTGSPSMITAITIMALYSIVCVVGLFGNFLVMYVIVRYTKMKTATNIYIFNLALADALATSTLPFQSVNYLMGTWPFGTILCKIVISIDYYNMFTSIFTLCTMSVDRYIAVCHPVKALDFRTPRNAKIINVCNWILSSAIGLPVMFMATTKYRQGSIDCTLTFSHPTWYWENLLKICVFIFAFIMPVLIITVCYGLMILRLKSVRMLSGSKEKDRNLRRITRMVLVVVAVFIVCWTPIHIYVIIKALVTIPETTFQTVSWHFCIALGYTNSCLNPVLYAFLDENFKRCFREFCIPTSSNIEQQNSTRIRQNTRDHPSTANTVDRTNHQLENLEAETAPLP

| Compound | Selectivity (KOR/MOR) [2] | Ki [2] [nM] | Ki [5] [nM] | KOR antagonism ([6]; i.c.v. administration) | antinociception (agonist activity) ([10]; i.c.v. administration) | other results |
| --- | --- | --- | --- | --- | --- | --- |
| CC(C)[C@@H](CN1CC[C@@](C)(c2cccc(O)c2)[C@@H](C)C1)NC(=O)[C@H]1Cc2ccc(O)cc2CN1 [JDTic] | – | – | – | – | – | duration of activity after a single dose ([1]; in vivo): weeks in some species |
| O=C1N[C@H](Cc2c[nH]c3ccccc23)C(=O)N[C@@H](Cc2ccccc2)C(=O)N2CCC[C@@H]2C(=O)N[C@H]1Cc1ccccc1 [JVA-2802, cyclo[Phe′-D-Pro-Phe^3-D-Trp^4]] (cyclo(F[dP]F[dW])) | 1/12 | 21.8 | – | – | – | oral dose required to significantly antagonize centrally administered U50,488 [3]: 30 mg/kg; oral dose preventing stress-induced relapse of cocaine-seeking behavior [4]: 60 mg/kg; duration of action ([1]; Ross et al., 2012, Eans et al., 2013): < 18 h |
| O=C1N[C@H](Cc2ccccc2)C(=O)N[C@@H](Cc2ccccc2)C(=O)N2CCC[C@@H]2C(=O)N[C@H]1Cc1ccccc1 [JVA-3620] (cyclo(F[dP]F[dF])) | 1/38 | 28.9 ± 4.9 | 1100 ± 80 | exhibited KOR antagonism | – | duration of KOR antagonism of centrally administered U50,488 [6]: 6 to 12 h; selectivity of opioid antagonism (KOR vs. MOR and DOR agonists) [6]: selectively antagonized the KOR agonist U50,488, but not the mu opioid receptor agonist morphine or the delta opioid receptor antagonist SNC-80; KOR antagonism ([6]; oral (p.o.) administration): exhibited KOR antagonism; oral dose required to significantly antagonize centrally administered U50,488 ([6]; p.o.): 10 mg/kg; antagonism of centrally (i.c.v.) administered KOR agonist U50,488 [6]: antagonized centrally (i.c.v.) administered KOR agonist; oral dose preventing stress-induced relapse of cocaine-seeking behavior [7]: 30 mg/kg; locomotion [8]: does not produce hyperlocomotion like morphine, but instead can significantly decrease locomotion during the first hour; respiration [9]: decreases respiration during the first hour |
| O=C1N[C@H](Cc2c[nH]c3ccccc23)C(=O)N[C@@H](Cc2c[nH]cn2)C(=O)N2CCC[C@@H]2C(=O)N[C@H]1Cc1ccccc1 [JVA-3622] (cyclo(H[dP]F[dW])) | – | 667 ± 470 | 2500 ± 510 | – | – | – |
| O=C1N[C@H](Cc2c[nH]c3ccccc23)C(=O)N[C@@H](Cc2ccccc2)C(=O)N2CCC[C@@H]2C(=O)N[C@H]1Cc1c[nH]cn1 [JVA-3623] (cyclo(F[dP]H[dW])) | – | 67.7 ± 9.2 | 366 ± 98 | – | – | – |
| O=C1N[C@H](Cc2c[nH]c3ccccc23)C(=O)N[C@@H](Cc2ccccc2)C(=O)N2CCC[C@@H]2C(=O)N[C@H]1Cc1cccnc1 [JVA-3624] (cyclo(F[dP][3Pal][dW])) | 1/23 | 8.34 ± 1.48 | 191 ± 39 | not KOR antagonism | exhibits antinociception | antinociception ED50 ([10]; i.c.v.): 1.13 nmol |
| O=C1N[C@H](Cc2c[nH]c3ccccc23)C(=O)N[C@@H](Cc2ccccc2)C(=O)N2CCC[C@@H]2C(=O)N[C@H]1Cc1ccncc1 [JVA-3625] (cyclo(F[dP][4Pal][dW])) | 1/12 | 30.7 ± 6.8 | 371 ± 81 | – | – | – |
| O=C1N[C@H](Cc2c[nH]c3ccccc23)C(=O)N[C@@H](Cc2ccccc2)C(=O)N2CCC[C@@H]2C(=O)N[C@H]1Cc1ccccn1 [JVA-3626] (cyclo(F[dP][2Pal][dW])) | 1/20 | 82.3 ± 13.8 | 1610 ± 590 | – | – | – |
| O=C1N[C@H](Cc2c[nH]c3ccccc23)C(=O)N[C@@H](Cc2ccccn2)C(=O)N2CCC[C@@H]2C(=O)N[C@H]1Cc1ccccc1 [JVA-3627] (cyclo([2Pal][dP]F[dW])) | 1/43 | 58.4 ± 9.3 | 2530 ± 460 | – | – | – |
| O=C1N[C@H](Cc2c[nH]c3ccccc23)C(=O)N[C@@H](Cc2cccnc2)C(=O)N2CCC[C@@H]2C(=O)N[C@H]1Cc1ccccc1 [JVA-3628] (cyclo([3Pal][dP]F[dW])) | 1/24 | 41.8 ± 16.3 | 988 ± 146 | selective KOR antagonism | – | duration of KOR antagonism of centrally administered U50,488 [6]: 12 to 24 h; selectivity of opioid antagonism (KOR vs. MOR and DOR agonists) [6]: opioid antagonism is selective for KOR; KOR antagonism ([6]; oral (p.o.) administration): antagonizing both peripherally and administered KOR agonist; antagonism of centrally (i.c.v.) administered KOR agonist U50,488 [6]: exhibits kappa opioid receptor (KOR) antagonism of centrally administered KOR agonist activity; oral dose preventing stress-induced relapse of cocaine-seeking behavior [7]: 30 mg/kg; locomotion [8]: does not produce hyperlocomotion like morphine, but instead can significantly decrease locomotion during the first hour; respiration [9]: decreases respiration during the first hour |
| O=C1N[C@H](Cc2c[nH]c3ccccc23)C(=O)N[C@@H](Cc2ccncc2)C(=O)N2CCC[C@@H]2C(=O)N[C@H]1Cc1ccccc1 [JVA-3629] (cyclo([4Pal][dP]F[dW])) | 1/86 | 32 ± 4.1 | 2740 ± 310 | – | – | – |
| [D-2′-Pal^4]CJ-15,208 [JVA-3671] | – | – | – | exhibits KOR antagonist activity | exhibits antinociception | opioid receptor mediating the antinociception ([10]; i.c.v. administration): mediated by delta opioid receptors (DOR) |
| [D-Bip^4]CJ-15,208 [JVA-3667] | – | – | – | weak KOR antagonist | agonist | selectivity of opioid antagonism (KOR vs. MOR and DOR agonists) [6]: selective for KOR; KOR antagonism ([6]; oral (p.o.) administration): only KOR antagonism |
| [D-His^4]CJ-15,208 [JVA-3670] | – | – | – | not KOR antagonist | agonist | KOR antagonism ([6]; oral (p.o.) administration): only KOR antagonism |
| [D-Tyr^4]CJ-15,208 [JVA-3669] | – | – | – | not KOR antagonist | agonist | – |
| [D-hPhe^4]CJ-15,208 [JVA-3668] | – | – | – | not KOR antagonist | agonist | – |

Source: US11820835B2, “Cyclic tetrapeptide analogs” (University of Kansas, priority 2018, dated 2023)
